Results from patent US20120082976A1, “METHOD OF SCREENING FOR INSULIN SECRETION-POTENTIATING AGENTS” (KOBE UNIVERSITY, priority 2009, published 2012).

Columns and labels:
[1] = target: T1, fluorescent-labeled mouse Epac2 (Mus musculus, UniProt Q9EQZ6); assay: FRET dynamic analysis of fluorescent-labeled mouse Epac2 in COS-1 cells; assay type: cell-based; parameters: expressed in transfected cells; host or cells: COS-1 cells (A1); conditions: COS-1 cells that did not express SUR1, in the presence of SU agent
T1 sequence (Q9EQZ6 1-1011): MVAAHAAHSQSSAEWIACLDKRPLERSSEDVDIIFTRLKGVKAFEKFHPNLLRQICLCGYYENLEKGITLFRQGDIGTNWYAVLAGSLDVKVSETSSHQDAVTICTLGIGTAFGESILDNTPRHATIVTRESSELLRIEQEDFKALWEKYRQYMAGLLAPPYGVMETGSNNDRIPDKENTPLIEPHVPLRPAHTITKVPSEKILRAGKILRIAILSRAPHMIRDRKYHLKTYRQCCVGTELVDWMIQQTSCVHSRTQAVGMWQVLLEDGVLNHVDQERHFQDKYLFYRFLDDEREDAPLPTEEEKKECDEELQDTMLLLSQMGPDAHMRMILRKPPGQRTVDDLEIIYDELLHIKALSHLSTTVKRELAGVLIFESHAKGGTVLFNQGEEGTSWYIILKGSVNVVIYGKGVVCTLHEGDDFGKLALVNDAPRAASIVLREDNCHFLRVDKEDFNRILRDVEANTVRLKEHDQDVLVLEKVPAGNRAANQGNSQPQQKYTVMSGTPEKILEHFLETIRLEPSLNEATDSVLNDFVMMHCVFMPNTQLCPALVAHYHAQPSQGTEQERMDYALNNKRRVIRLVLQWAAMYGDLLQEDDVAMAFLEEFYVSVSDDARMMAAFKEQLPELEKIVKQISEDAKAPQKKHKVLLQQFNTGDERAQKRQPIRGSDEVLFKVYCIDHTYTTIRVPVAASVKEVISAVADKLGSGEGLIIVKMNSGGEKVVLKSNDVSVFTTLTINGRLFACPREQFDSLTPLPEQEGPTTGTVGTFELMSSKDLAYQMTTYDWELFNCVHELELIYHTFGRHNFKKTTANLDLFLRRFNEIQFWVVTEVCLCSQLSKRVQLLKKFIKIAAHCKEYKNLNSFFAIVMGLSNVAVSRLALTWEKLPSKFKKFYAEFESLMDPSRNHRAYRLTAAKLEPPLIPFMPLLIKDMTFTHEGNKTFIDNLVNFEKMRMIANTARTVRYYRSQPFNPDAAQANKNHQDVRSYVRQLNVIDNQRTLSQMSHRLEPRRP
Procedure: Two days before the day for measurement, the cells were transformed with fluorescent-labeled mouse Epac2 expression vector and then cultured. On the day before the day for measurement, the cells were transferred onto the glass culture dishes of 25 mm in diameter, and culture was continued. About 48 hours after the transformation, the culture medium was replaced with HEPES-KRB buffer (HEPES buffer containing 133.4 mM NaCl, 4.7 mM KCl, 1.2 mM KH2PO4, 1.2 mM MgSO4, 2.5 mM CaCl2, 5.0 mM NaHCO3, 2.8 mM glucose, and 0.2% BSA (pH 7.4)). The cells were observed through a confocal microscope (FV1000, Olympus Corporation) equipped with the UPlanSApo objective lens (100*oil/1.40 NA) to set the focus of the lens on the cells, and excitation light with the wavelength of 440 nm was irradiated using 440 nm LD laser (FV5-LDPSU, Olympus Corporation) at the power of 0.5%. Fluorescent light emitted from thus excited fluorescent-labeled mouse Epac2 was observed through two fluorescence filters, 480DF30 (for 480 nm light) and 535DF25 (for 535 nm light) as dual images of the fluorescent light every 5 seconds for dynamic analysis of the emitted fluorescent light. The results of the dynamic analysis, after first calculating the ratio R in intensity of fluorescence at 535 nm to 480 nm at each measurement (ratio of intensity at 535 nm/intensity at 480 nm), were expressed in the value which was derived by dividing the ratio by the initial value R0 (ratio of intensity at 535 nm/intensity at 480 nm before addition of an agent), i.e., R/R0. All the observation was carried out at room temperature.

Rap1 [2] = assay: GTP-RAP1 pull-down assay in MIN6 cells; assay type: cell-based
Procedure: (§1) GTP-RAP1 pull-down assay was performed according to the method described in Shibasaki T. et al. Proc. Natl. Acad. Sci. USA 104, 19333-9 (2007). Namely, MIN6 cells which had been let stand for 30 minutes in HEPES-KRB buffer in advance were cultured for further 15 minutes in HEPES-KRB buffer containing an agent of interest and 2.8 mM glucose. Then, the cells were fractured, and to the cell lysate thus obtained was added glutathione resin which carried GST-Ra1GDS-RID bound to it (SIGMA). After 90 minutes of incubation at 4 deg C., the resin was separated by centrifugation, washed several times with HEPES-KRB buffer, and subjected to SDS-PAGE gel electrophoresis. After the SDS-PAGE gel electrophoresis, Western blotting was carried to transfer the protein onto PVDF membrane, and Rap1 transferred on the membrane was detected with anti-Rap1 antibody (Santa Cruz Biotechnology, Inc., USA).
Epac2 has the GEF activity and activates Rap1 by converting it to GTP-bound Rap1 through its binding to […]. This reaction constitute part of signal transmission for insulin secretion in beta-cells. Thus, it was examined whether or not Rap1 is activated with SU agents, using MIN6 cells, which originate from beta-cells. Activation of Rap1 was measured by determining GTP-bound Rap1, using GTP-RAP1 pull-down assay.

Rap1 [3] = assay: GTP-RAP1 pull-down assay in Epac2-lacking pancreatic beta-cells; assay type: cell-based, mouse
Procedure: (§2) Pancreatic beta-cells lacking Epac2 were obtained according to the technique disclosed in Shibasaki T. et al. Proc. Natl. Acad. Sci. USA 104, 19333-9 (2007), by isolating from the mice which were bred after crossing Epac2-lacking mice with IT6 mice, in which SV40 large T […] is expressed under the control of human insulin gene promoter. The method for preparing IT6 mice is described in Miyazaki J, et al., Endocrinology, 127, 126-132 (1990). Further, MIN6 cells were prepared by the technique disclosed in Japanese patent application publication No. 2002-125661.
as §1
Then, using Epac2-lacking pancreatic beta-cells, examination was performed as to whether Rap1 was activated by SU agents. Activation of Rap1 was measured by determining the amount of GTP-bound Rap1 using GTP-RAP1 pull-down assay.

Rap1 [4] = assay: GTP-RAP1 pull-down assay in Epac2-lacking pancreatic beta-cells transformed with mouse Epac2 expression vector; assay type: cell-based
Procedure: as §2, §1

mouse Epac2 = target: T2, mouse Epac2 (Mus musculus, UniProt Q9EQZ6); assay: Sulfonylurea binding experiment with tritium-labeled glibenclamide in COS-1 cells transformed with mouse Epac2 expression vector
T2 construct: expressed in transfected cells; host or cells: COS-1 cells
T2 sequence (Q9EQZ6 1-1011): T1 sequence (Q9EQZ6 1-1011)
Description: COS1 cells were transformed with mouse Epac2 expression vector. […] The membrane was washed four times with the same buffer which had been ice cooled, and then measured for radioactivity on a liquid scintillation counter.

pancreatic islets = assay: Insulin secretion experiment, pancreatic islets of wild-type and Epac2-lacking mice; assay type: cell-based, mouse
Procedure: Mouse pancreatic beta-cells were isolated from wild-type mice (C57BL/6) or Epac2-lacking mice, and cultured for two days. The mouse pancreatic beta-cells were let stand in HEPES-KRB buffer containing 2.8 mM glucose for 30 minutes. The cells then were dispensed to […] in such a manner that five pancreatic islets of a like size were contained in each well, and cultured for 15 minutes in 100 micro L HEPES-KRB buffer containing an agent of interest and 2.8 mM glucose. The amount of insulin released in the medium and that in the cells were measured using an insulin assay kit (Medical Biological Laboratories Co. Ltd.). The amount of secreted insulin was normalized by the amount of insulin in the cells.
The effect of SU agents on insulin secretion via Epac2 was examined in an insulin secretion experiment using pancreatic islets. First, pancreatic islets obtained from wild-type mice and Epac2-lacking mice were stimulated with glucose, and the amount of secreted insulin was determined.

[5] = target: T1, fluorescent-labeled mouse Epac2; assay: FRET dynamic analysis of fluorescent-labeled mouse Epac2 in MIN6 cells; assay type: cell-based; parameters: expressed in transfected cells; host or cells: MIN6 cells (A3); conditions: in the presence of SU agent
Procedure: All the observation was carried out at room temperature.

[6] = clinical report (Non-patent document 19); cited from earlier work
[7] = Oral glucose tolerance test in wild-type and Epac2-lacking mice; assay type: in vivo, mouse; conditions: oral 1.5 g/kg glucose plus 100 mg/kg tolbutamide
Procedure: Peripheral blood was sampled at a predetermined point of time, and serum insulin concentration and blood glucose concentration were measured with an ELISA kit (mftd. by Morinaga) and Antisense III glucose analysis device (Bayer Yakuhin, Ltd.), respectively.
Next, glucose was administered together with tolbutamide, and measurement was conducted in the same manner.

[8] = concentration-dependent, 15 minutes, 2.8 mM glucose

change in R/R0 value (FRET) [1] | IC50 (mouse Epac2) [µM] | SMILES | amount of GTP-bound Rap1 (activation of Rap1) (Rap1 [2]; [8]) | activation of Rap1 (Rap1 [3]) | activation of Rap1 (Rap1 [4]) | amount of GTP-bound Rap1 (activation of Rap1) (Rap1 [2]; concentrations higher than 100 nM) | insulin secretion, islets from Epac2-lacking mice compared with wild-type mice (pancreatic islets; 10 nM) | change in R/R0 value (FRET) [5] | glycemic control in a patient with neonatal diabetes [6] | insulin secretion, islets from Epac2-lacking mice compared with wild-type mice (pancreatic islets; 100 nM) | blood glucose concentration, Epac2-lacking mice compared with wild-type mice [7] | serum insulin concentration, Epac2-lacking mice compared with wild-type mice [7]
decrease in R/R0 |  | CC(=O)c1ccc(S(=O)(=O)NC(=O)NC2CCCCC2)cc1 [acetohexamide] | increase the amount of GTP-bound Rap1 | activated no Rapt | found to activate Rap1 |  |  |  |  |  |  | 
decrease in R/R0 | 0.025 | COc1ccc(Cl)cc1C(=O)NCCc1ccc(S(=O)(=O)NC(=O)NC2CCCCC2)cc1 [glibenclamide] | increase the amount of GTP-bound Rap1 | activated no Rapt | found to activate Rap1 | failed to increase it | markedly low insulin secretion | concentration-dependent decrease in R/R0 value |  |  |  | 
decrease in R/R0 |  | Cc1cnc(C(=O)NCCc2ccc(S(=O)(=O)NC(=O)NC3CCCCC3)cc2)cn1 [glipizide] | increase the amount of GTP-bound Rap1 | activated no Rapt | found to activate Rap1 |  |  |  |  |  |  | 

Continued, compound first:

SMILES | change in R/R0 value (FRET) [1] | IC50 (mouse Epac2) [µM] | amount of GTP-bound Rap1 (activation of Rap1) (Rap1 [2]; [8]) | activation of Rap1 (Rap1 [3]) | activation of Rap1 (Rap1 [4]) | amount of GTP-bound Rap1 (activation of Rap1) (Rap1 [2]; concentrations higher than 100 nM) | insulin secretion, islets from Epac2-lacking mice compared with wild-type mice (pancreatic islets; 10 nM) | change in R/R0 value (FRET) [5] | glycemic control in a patient with neonatal diabetes [6] | insulin secretion, islets from Epac2-lacking mice compared with wild-type mice (pancreatic islets; 100 nM) | blood glucose concentration, Epac2-lacking mice compared with wild-type mice [7] | serum insulin concentration, Epac2-lacking mice compared with wild-type mice [7]
CCCNC(=O)NS(=O)(=O)c1ccc(Cl)cc1 [chlorpropamide] | decrease in R/R0 |  | increase the amount of GTP-bound Rap1 | activated no Rapt | found to activate Rap1 |  |  |  |  |  |  | 
Cc1ccc(S(=O)(=O)NC(=O)NN2CC3CCCC3C2)cc1 (stereo not shown) [gliclazide] | no change in R/R0 value |  | no effect on the amount of GTP-bound Rap1 |  |  |  | no significant difference |  | not effective |  |  | 
CC(C)[C@H]1CC[C@H](C(=O)N[C@H](Cc2ccccc2)C(=O)O)CC1 [nateglinide] | no change in R/R0 value |  |  |  | did not activate Rap1 |  |  |  |  |  |  | 
CCCCNC(=O)NS(=O)(=O)c1ccc(C)cc1 [tolbutamide] | decrease in R/R0 | 240 |  | activated no Rapt | found to activate Rap1 |  |  | concentration-dependent decrease in R/R0 value |  | markedly low insulin secretion | high in the Epac2-lacking mice compared with the wild-type mice | low in the Epac2-lacking mice compared with the wild-type mice
